Assay results: ChEMBL document CHEMBL1201862, “PubChem BioAssay data set” (2004)
Active and inactive are the calls of the source. Rule as the data show it, for most assays here: actives have a measured IC50 and inactives only a lower limit.

Columns and labels:
Insulin-degrading enzyme [1] = biological target: T1, Insulin-degrading enzyme (Homo sapiens, UniProt P14735); assay: recombinant IDE activation, cell-free – biochemical, fluorescence polarization, counter-screen for IDE activator project, dose response (AID 588681)
T1 sequence (P14735 whole entry): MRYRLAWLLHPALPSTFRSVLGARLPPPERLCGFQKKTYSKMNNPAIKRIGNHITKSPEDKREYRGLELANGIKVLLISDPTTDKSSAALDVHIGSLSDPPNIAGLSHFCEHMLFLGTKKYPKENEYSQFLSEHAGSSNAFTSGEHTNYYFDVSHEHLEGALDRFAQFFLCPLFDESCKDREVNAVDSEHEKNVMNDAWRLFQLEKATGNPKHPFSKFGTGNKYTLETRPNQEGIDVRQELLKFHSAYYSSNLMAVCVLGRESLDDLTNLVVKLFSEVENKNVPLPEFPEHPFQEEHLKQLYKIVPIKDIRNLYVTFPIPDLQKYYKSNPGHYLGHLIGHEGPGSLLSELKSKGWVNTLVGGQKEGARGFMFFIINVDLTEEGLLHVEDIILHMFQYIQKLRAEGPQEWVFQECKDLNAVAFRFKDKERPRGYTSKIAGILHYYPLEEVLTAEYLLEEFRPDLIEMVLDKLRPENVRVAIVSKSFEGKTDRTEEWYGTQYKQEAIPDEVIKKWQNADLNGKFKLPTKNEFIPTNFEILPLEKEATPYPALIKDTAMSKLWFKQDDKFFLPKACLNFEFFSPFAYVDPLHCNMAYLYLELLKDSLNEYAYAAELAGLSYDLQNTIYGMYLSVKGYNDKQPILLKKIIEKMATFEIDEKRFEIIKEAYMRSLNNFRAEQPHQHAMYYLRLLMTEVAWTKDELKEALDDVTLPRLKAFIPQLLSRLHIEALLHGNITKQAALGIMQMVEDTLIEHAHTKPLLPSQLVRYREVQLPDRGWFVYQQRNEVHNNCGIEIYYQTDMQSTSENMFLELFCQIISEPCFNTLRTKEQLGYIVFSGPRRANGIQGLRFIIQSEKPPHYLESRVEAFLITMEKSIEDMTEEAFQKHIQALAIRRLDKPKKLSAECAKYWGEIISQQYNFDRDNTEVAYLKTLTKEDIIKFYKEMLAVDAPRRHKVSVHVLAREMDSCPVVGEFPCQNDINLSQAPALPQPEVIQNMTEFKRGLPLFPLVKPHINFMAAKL

Insulin-degrading enzyme [2] = biological target: T1, Insulin-degrading enzyme; assay: cellular IDE activation of Abeta substrate cleavage – fluorescence polarization, HEK cells, dose response (AID 588439); format: functional, cell-based
HEK293 [3] = assay: membrane integrity loss in HEK cells – cell-based, fluorescence, cytotoxicity control for IDE activator project, dose response (AID 588440); format: functional; conditions: Homo sapiens;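 also: cytotoxicity by LDH release measuring loss of membrane integrity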
HEK293 [4] = assay: optical interference in Abeta FP readout, dose response, artefact control for IDE activator project, biochemical, fluorescence polarization (AID 588442); format: functional, cell-based; conditions: Homo sapiens
[5] = biological target: T2, Sentrin-specific protease 8 (Homo sapiens, UniProt Q96LD8); assay: inhibition of human SENP8 cleavage activity – biochemical, luminescence, SAR follow-up (AID 504501); format: functional
T2 sequence (Q96LD8 whole entry): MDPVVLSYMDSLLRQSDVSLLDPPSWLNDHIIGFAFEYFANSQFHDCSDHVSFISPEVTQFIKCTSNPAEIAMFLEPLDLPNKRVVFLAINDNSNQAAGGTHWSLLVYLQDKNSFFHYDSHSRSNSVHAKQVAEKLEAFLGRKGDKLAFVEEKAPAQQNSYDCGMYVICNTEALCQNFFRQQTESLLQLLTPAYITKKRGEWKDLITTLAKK

Caspase-3 [6] = biological target: T3, Caspase-3 (Homo sapiens, UniProt P42574); assay: inhibition of recombinant caspase-3 activity – biochemical, luminescence, set 2, selectivity assay for SENP protease inhibitor project, SAR follow-up (AID 588599); format: functional
T3 sequence (P42574 whole entry): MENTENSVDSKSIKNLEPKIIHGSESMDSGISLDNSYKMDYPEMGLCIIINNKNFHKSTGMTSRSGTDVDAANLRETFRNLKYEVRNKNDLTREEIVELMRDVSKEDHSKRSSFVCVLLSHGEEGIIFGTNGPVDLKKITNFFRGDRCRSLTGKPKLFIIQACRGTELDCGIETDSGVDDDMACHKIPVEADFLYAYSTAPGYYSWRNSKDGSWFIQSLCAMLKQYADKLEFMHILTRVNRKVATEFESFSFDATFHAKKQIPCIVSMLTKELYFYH

[7] = biological target: T2, Sentrin-specific protease 8; assay: inhibition of sentrin protease 8 – biochemical, luminescence, set 2, SAR follow-up (AID 588601); format: functional
Caspase-3 [8] = biological target: T3, Caspase-3; assay: SAR Analysis of small molecule inhibitors of Sentrin-specific proteases (SENPs) using a Caspase-3 Selectivity assay. [Related pubchem assays (depositor defined):AID2540, AID2599, AID434973, AID489001]; format: functional
[9] = biological target: T4, Sentrin-specific protease 7 (Homo sapiens, UniProt Q9BQF6); assay: inhibition of human SENP7 cleavage activity – biochemical, luminescence, set 2, SAR follow-up (AID 588600); format: functional
T4 sequence (Q9BQF6 whole entry): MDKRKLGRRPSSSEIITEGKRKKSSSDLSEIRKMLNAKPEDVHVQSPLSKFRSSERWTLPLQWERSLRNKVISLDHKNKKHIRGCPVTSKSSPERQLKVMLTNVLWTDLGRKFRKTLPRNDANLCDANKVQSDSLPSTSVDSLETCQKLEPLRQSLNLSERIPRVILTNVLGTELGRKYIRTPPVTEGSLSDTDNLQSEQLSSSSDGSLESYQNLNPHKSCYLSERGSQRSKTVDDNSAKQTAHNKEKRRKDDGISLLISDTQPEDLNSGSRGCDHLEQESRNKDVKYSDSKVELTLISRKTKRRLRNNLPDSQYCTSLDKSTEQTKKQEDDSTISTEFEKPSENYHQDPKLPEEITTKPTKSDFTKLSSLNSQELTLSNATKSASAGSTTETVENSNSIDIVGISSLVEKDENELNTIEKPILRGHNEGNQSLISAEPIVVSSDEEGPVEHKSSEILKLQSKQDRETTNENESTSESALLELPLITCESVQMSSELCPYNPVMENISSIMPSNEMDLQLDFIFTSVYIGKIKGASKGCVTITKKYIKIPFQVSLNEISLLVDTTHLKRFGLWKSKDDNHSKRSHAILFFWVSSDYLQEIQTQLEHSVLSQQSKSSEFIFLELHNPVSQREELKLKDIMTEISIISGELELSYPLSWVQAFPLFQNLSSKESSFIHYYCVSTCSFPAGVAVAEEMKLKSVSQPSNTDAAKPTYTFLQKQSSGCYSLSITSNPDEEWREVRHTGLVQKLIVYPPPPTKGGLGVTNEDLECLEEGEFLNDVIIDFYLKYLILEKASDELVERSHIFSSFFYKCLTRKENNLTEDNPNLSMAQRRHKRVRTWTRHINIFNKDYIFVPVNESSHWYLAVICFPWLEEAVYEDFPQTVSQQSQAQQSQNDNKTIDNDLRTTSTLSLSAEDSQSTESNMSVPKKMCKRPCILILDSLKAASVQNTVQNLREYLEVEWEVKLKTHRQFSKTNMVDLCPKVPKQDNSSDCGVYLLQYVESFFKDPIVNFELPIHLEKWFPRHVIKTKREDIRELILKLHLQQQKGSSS

[10] = biological target: T5, Sentrin-specific protease 6 (Homo sapiens, UniProt Q9GZR1); assay: SAR Analysis of small molecule inhibitors of Sentrin-specific protease 6 (SENP6) using a Luminescent assay. [Related pubchem assays (depositor defined):AID2582, AID2599]; format: functional
T5 sequence (Q9GZR1 whole entry): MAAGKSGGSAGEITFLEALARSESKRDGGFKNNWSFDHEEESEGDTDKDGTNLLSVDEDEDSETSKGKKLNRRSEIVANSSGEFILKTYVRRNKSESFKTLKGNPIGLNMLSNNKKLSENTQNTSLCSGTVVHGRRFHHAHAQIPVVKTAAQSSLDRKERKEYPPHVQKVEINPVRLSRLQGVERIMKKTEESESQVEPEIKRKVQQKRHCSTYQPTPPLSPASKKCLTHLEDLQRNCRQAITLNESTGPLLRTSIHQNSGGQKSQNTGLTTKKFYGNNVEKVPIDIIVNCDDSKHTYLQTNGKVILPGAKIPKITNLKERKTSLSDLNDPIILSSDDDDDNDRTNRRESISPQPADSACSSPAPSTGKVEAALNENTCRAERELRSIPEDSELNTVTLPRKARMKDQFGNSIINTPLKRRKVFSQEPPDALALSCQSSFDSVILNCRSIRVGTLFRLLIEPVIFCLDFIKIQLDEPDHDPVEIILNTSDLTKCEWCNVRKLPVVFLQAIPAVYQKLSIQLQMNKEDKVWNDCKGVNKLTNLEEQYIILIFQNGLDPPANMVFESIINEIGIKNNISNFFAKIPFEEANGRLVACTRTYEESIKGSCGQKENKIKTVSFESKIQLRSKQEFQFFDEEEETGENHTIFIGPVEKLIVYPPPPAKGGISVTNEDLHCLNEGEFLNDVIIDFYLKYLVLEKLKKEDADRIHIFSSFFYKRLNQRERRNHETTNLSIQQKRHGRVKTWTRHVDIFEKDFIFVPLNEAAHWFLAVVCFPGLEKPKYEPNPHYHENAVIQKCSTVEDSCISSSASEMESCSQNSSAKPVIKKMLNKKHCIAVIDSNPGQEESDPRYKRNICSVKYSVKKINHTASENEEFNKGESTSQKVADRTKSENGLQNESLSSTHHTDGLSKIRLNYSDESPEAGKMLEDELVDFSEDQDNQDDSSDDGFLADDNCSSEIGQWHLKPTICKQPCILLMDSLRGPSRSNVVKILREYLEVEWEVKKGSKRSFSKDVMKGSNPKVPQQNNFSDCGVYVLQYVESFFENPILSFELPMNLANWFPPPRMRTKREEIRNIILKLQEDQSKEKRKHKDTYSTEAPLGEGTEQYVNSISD

[11] = biological target: T5, Sentrin-specific protease 6; assay: inhibition of human SENP6 catalytic domain – biochemical, luminescence, set 2, SAR follow-up (AID 588598); format: functional
[12] = biological target: T4, Sentrin-specific protease 7; assay: inhibition of human SENP7 cleavage activity – biochemical, luminescence, SAR follow-up (AID 504497); format: functional
Bcl-2-related protein A1 = biological target: T6, Bcl-2-related protein A1 (Mus musculus, UniProt Q07440); format: functional;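 also: confirmatory dose–response counterscreen on Bfl-1, used to check hits from a UBC13 polyubiquitin inhibitor campaign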
T6 sequence (Q07440 whole entry): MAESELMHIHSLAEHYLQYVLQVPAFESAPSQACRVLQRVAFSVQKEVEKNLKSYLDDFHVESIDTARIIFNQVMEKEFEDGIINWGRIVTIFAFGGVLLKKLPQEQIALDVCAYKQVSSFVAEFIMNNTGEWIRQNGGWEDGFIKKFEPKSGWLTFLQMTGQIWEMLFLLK

[13] = biological target: T7, Ubiquitin-conjugating enzyme E2 N (Homo sapiens, UniProt P61088); format: functional
T7 sequence (P61088 whole entry): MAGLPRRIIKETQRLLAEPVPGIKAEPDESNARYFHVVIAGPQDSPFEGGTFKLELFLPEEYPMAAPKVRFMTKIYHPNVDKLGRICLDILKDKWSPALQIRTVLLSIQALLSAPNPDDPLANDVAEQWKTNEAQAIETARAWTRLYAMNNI

[14] = biological target: T7, Ubiquitin-conjugating enzyme E2 N; format: functional; remark: listed apart in the source

| IC50 (Caspase-3 [6]) | IC50 (Caspase-3 [8]) | IC50 [9] | IC50 [10] | IC50 [11] | IC50 [12] | Compound | EC50 (Insulin-degrading enzyme [1]) | EC50 (Insulin-degrading enzyme [2]) | IC50 (HEK293 [3]) | EC50 (HEK293 [4]) | IC50 [5] | IC50 [7] | IC50 (Bcl-2-related protein A1) | IC50 [13] | IC50 [14] |
| --- | --- | --- | --- | --- | --- | --- | --- | --- | --- | --- | --- | --- | --- | --- | --- |
|  |  |  |  |  |  | O=C(c1ccccc1)C1NC1c1ccccc1 (configuration not stated) | > 54.7 µM (inactive) | > 54.7 µM (inactive) | > 89.3 µM (inactive) | > 54.7 µM (inactive) |  |  |  |  |  |
| 0.749 µM (active) | 0.72 µM (active) | 0.987 µM (active) | 0.79 µM (active) | 0.938 µM (active) | 0.92 µM (active) | CCCCc1ccc2nc(NC(=O)c3cccn3C)sc2c1 |  |  |  |  | 0.81 µM (active) | 0.944 µM (active) |  |  |  |
| > 99 µM (inactive) |  | > 99 µM (inactive) |  | > 99 µM (inactive) |  | Cc1ccc2nc(NC(=O)c3cccc(S(=O)(=O)NCC4CCCO4)c3)sc2c1 (configuration not stated) |  |  |  |  |  | > 99 µM (inactive) |  |  |  |
|  | > 99 µM (inactive) |  | > 99 µM (inactive) |  | > 99 µM (inactive) | O=C(CCc1ccccc1)NNc1cc(N2CCOCC2)nc(N2CCOCC2)n1 |  |  |  |  | > 99 µM (inactive) |  |  |  |  |
|  |  |  |  |  |  | C#CCOCCOCCOCCNc1nc(N2CCN(C(=O)CCCCCCCCCCNC(=O)[C@H](CCCCN)n3cc(C[C@@H](C)CC)nn3)CC2)nc(N2CCN(C(=O)CCCCCCCCCCNC(=O)[C@H](CCCN=C(N)N)n3cc(C[C@@H](C)CC)nn3)CC2)n1 | > 2.03 µM (active) | > 2.03 µM (active) | 2.17 µM (active) | > 54.7 µM (inactive) |  |  | 4.6 µM (active) | 2 µM (active) | 1.44 µM (active) |
